Assay results from the CheMixHub ionic liquid set.

Experiment: xn = mol fraction of the nth substance listed

Cc1ncc(C[n+]2csc(CCO)c2C)c(N)n1.Cl.[Cl-] + O + CCCC[N+](CCCC)(CCCC)CCCC.O=S(=O)([O-])O
viscosity [mPa·s], 101 kPa
Conditions | x1 = 0.0003639, x3 = 0 | x1 = 0.0006573, x3 = 0 | x1 = 0.0009524, x3 = 0 | x1 = 0.001251, x3 = 0 | x1 = 0.001553, x3 = 0 | x1 = 0.001856, x3 = 0
298.15 K | 0.9024 | 0.914 | 0.9244 | 0.9372 | 0.9488 | 0.959
308.15 K | 0.7301 | 0.7393 | 0.7485 | 0.7576 | 0.768 | 0.7772
318.15 K | 0.6037 | 0.6116 | 0.6196 | 0.6275 | 0.6343 | 0.6413

O=C1O[C@H]([C@@H](O)CO)C(O)=C1O + O + CCCC[N+](CCCC)(CCCC)CCCC.O=S(=O)([O-])O
viscosity [mPa·s], 101 kPa
Conditions | x1 = 0.0003639, x3 = 0 | x1 = 0.0006573, x3 = 0 | x1 = 0.0009524, x3 = 0 | x1 = 0.001251, x3 = 0 | x1 = 0.001553, x3 = 0 | x1 = 0.001856, x3 = 0
298.15 K | 0.899 | 0.904 | 0.91 | 0.916 | 0.922 | 0.927
308.15 K | 0.724 | 0.728 | 0.732 | 0.738 | 0.743 | 0.748
318.15 K | 0.6 | 0.604 | 0.608 | 0.612 | 0.616 | 0.621

NC(N)=O + O + CCCC[n+]1ccn(C)c1.F[B-](F)(F)F
298.15 K, 100 kPa
Conditions | viscosity [mPa·s]
x1 = 0.008492, x2 = 0.9402 | 1.98
x1 = 0.01695, x2 = 0.9318 | 2.01
x1 = 0.02496, x2 = 0.9237 | 2.06
x1 = 0.03322, x2 = 0.9155 | 2.05
x1 = 0.0408, x2 = 0.9079 | 2.15

CC(=O)[O-].[Na+] + O + CCCC[n+]1ccn(C)c1.N#C[S-]
Conditions | viscosity [mPa·s]
323.15 K, 101 kPa, x1 = 0.08925, x2 = 0.9088 | 2.515

CCCCCCCCCCCCCCCC[N+](C)(C)C.[Br-] + O + CO
electrical conductivity [S/m], 101 kPa
Conditions | 293 K | 298 K | 303 K | 308 K | 313 K
x1 = 1.91e-06, x2 = 0.92 | 0.0025 | 0.0026 | 0.0022 | 0.0037 | 0.003
x1 = 5.74e-06, x2 = 0.92 | 0.0046 | 0.0047 | 0.0044 | 0.0063 | 0.0059
x1 = 9.57e-06, x2 = 0.92 | 0.0065 | 0.0067 | 0.0069 | – | 0.0088
x1 = 1.148e-05, x2 = 0.92 | 0.0077 | 0.0079 | 0.0083 | 0.0107 | 0.0106
x1 = 1.34e-05, x2 = 0.92 | 0.0087 | 0.009 | 0.0096 | 0.0122 | 0.0122
x1 = 1.531e-05, x2 = 0.92 | 0.0099 | 0.0102 | 0.0109 | – | 0.014
x1 = 1.723e-05, x2 = 0.92 | 0.0111 | 0.0114 | 0.0123 | 0.0157 | 0.016
x1 = 1.914e-05, x2 = 0.92 | 0.0121 | 0.0125 | 0.0138 | 0.0174 | 0.018
x1 = 2.871e-05, x2 = 0.92 | 0.0168 | 0.018 | 0.0199 | 0.0248 | 0.0261
x1 = 3.828e-05, x2 = 0.92 | 0.0215 | 0.0236 | 0.0263 | 0.0325 | 0.0352
x1 = 5.742e-05, x2 = 0.9199 | 0.0306 | 0.0338 | 0.0381 | 0.0467 | 0.0521
x1 = 7.656e-05, x2 = 0.9199 | 0.0391 | 0.0441 | 0.0502 | 0.0608 | 0.0687
x1 = 9.57e-05, x2 = 0.9199 | 0.0439 | 0.0508 | 0.0579 | 0.0702 | –
x1 = 0.0001148, x2 = 0.9199 | 0.0472 | 0.0552 | 0.0632 | 0.0758 | –
x1 = 0.000134, x2 = 0.9199 | 0.05 | 0.0585 | 0.0675 | 0.0806 | –
x1 = 0.0001531, x2 = 0.9199 | 0.0527 | 0.0618 | 0.0719 | 0.0858 | –
x1 = 0.0001722, x2 = 0.9198 | 0.0554 | 0.0652 | 0.0758 | 0.0904 | –
x1 = 0.0001914, x2 = 0.9198 | 0.0582 | 0.0684 | 0.0801 | 0.0955 | –
x1 = 0.0002105, x2 = 0.9198 | 0.0607 | 0.0715 | 0.0839 | 0.101 | –
x1 = 0.0002296, x2 = 0.9198 | 0.0631 | 0.0747 | 0.0879 | 0.105 | –
x1 = 0.0002488, x2 = 0.9198 | 0.0661 | 0.078 | 0.0917 | 0.11 | –
x1 = 0.0002679, x2 = 0.9198 | 0.0688 | 0.0811 | 0.0958 | 0.115 | –
